Patent US10000473B2, “Indazole derivatives useful as glucagon receptor antagonists” (Janssen Pharmaceutica NV, priority 2016, dated 2018)
pKi: −log10 of the molar value.

biological target: T1, human GCGR (Homo sapiens, UniProt P47871); assay: Cellular functional assay, cAMP readout (glucagon-stimulated cAMP, LANCE TR-FRET); assay type: cell-based; conditions: HEK293 cells stably expressing full-length human GCGR; glucagon 100 pM; IC50 converted to Ki; read-out: Inhibition of cAMP Ki
T1 construct: expressed in transfected cells; host or cells: HEK293 (hGluc-1HEK), pcDNA3.1, G418 selection
T1 sequence (P47871 26-477): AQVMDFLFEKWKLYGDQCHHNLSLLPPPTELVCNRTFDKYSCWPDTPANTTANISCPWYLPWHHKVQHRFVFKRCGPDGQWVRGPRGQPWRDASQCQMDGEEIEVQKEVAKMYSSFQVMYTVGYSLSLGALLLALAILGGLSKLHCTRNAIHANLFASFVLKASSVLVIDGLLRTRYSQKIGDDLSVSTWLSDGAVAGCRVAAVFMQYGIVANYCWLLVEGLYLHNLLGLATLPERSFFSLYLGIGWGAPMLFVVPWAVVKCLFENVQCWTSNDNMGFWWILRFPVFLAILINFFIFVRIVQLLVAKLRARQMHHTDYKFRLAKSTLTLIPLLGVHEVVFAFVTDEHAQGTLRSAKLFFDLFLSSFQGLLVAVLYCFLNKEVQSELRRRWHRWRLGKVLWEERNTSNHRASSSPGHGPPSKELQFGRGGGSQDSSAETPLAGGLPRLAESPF
Method: IC50 Values in Cellular Functional Assays: cAMP Readout
Full-length human GCGR (Accession Number: NM000160) subcloned into pcDNA3.1 was stably transfected into HEK293 cells (hGluc-1HEK) and maintained under G418 selection (500 μg/mL). Cell cultures were maintained in DMEM/F12 media supplemented with 10% FBS and 1% GlutaMax™ Supplement (Available from ThermoFisher Scientific, catalog #35050061). Glucagon stimulated cAMP was quantified using LANCE technology as per manufacturer instructions. On the day of the experiment, spent media was removed and cells were washed with Hank's Buffered Saline solution (HBSS), and cells harvested with non-enzymatic cell dissociation solution, then washed once with HBSS. Cells were re-suspended in stimulation buffer at a concentration of 0.83×10^6 cells/ml and cAMP detection antibody was added. 6 μl/well of this solution was then dispensed in a 384 well plate (cell density 5000 cells/well). Test compound was serially diluted in DMSO and 50 nl were dispensed on top of the cell solution and allowed to incubate for 30 minutes. 6 μl of a 2× glucagon solution (final concentration in assay 100 pM) was then added and the reaction was terminated after 5 minutes with the addition of detection mix. The resulting mixture was incubated, protected from light for 1.5 h. cAMP levels were quantified by TR-FRET in an EnVision instrument against a known standard. IC50's were generated by using a non-linear regression macro driven in Excel and converted to Ki values.

| pKi | SMILES |
| --- | --- |
| 7.62 | COc1c(-c2ccc(C(F)(F)F)cc2C)ccc2nn(C(CC(C)C)c3ccc(C(=O)NCCC(=O)O)cc3)cc12 (centres unmarked) [Compound #233, 3-(4-(1-(4-Methoxy-5-(2-methyl-4-(trifluoromethyl)phenyl)-2H-indazol-2-yl)-3-methylbutyl)benz-amido)propanoic acid] |
| 6.96 | O=C(O)CCNC(=O)c1ccc(C(CCC(F)(F)F)n2cc3cc(-c4ccc(Cl)cc4Cl)ccc3n2)cc1 (centres unmarked) [Compound #224, 3-[[4-[1-[5-(2,4-Dichlorophenyl)indazol-2-yl]-4,4,4-trifluorobutyl]benzoyl]amino]propanoic acid] |
| 7.12 | COc1c(-c2ccc(C(F)(F)F)cc2C)ccc2c1cnn2C(CC(C)C)c1ccc(C(=O)NCCC(=O)O)nc1 (centres unmarked) [Compound #213, 3-(5-(1-(4-Methoxy-5-(2-methyl-4-(trifluoromethyl)phenyl)-1H-indazol-1-yl)-3-methylbutyl)picolinamido)propanoic acid] |
| 7.92 | COc1c(-c2ccc(C(F)(F)F)cc2C)ccc2nn(C(CC(C)C)c3ccc(C(=O)NCCC(=O)O)nc3)cc12 (centres unmarked) [Compound #236, 3-(5-(1-(4-Methoxy-5-(2-methyl-4-(trifluoromethyl)phenyl)-2H-indazol-2-yl)-3-methylbutyl)picolinamido)propanoic acid] |
| 6.33 | CC(C)CC(c1ccc(C(=O)NCCC(=O)O)nc1)n1ncc2cc(-c3cc4ccccc4s3)ccc21 (centres unmarked) [compound 48] |
| < 5.59 | Cc1cc(-c2ccc(C(C)(C)C)cc2)cc2cnn(C(CC(C)C)c3ccc(C(=O)NCCC(=O)O)nc3)c12 (centres unmarked) [compound 72] |
| 7.38 | Cc1cc(Cl)ccc1-c1ccc2nn(C(CC3CCCCC3)c3ccc(C(=O)NCCC(=O)O)nc3)cc2c1 (centres unmarked) [compound 249] |
| 7.22 | Cc1c(-c2ccc(C(F)(F)F)cc2Cl)ccc2c1cnn2C(CC(C)C)c1ccc(C(=O)NCCC(=O)O)nc1 (centres unmarked) [Compound #198, 3-(5-(1-(5-(2-Chloro-4-(trifluoromethyl)phenyl)-4-methyl-1H-indazol-1-yl)-3-methylbutyl)picolinamido)propanoic acid] |
| 7.22 | COc1c(-c2ccc(C(F)(F)F)cc2C)ccc2c1cnn2C(CC(C)C)c1ccc(C(=O)NCCC(=O)O)cc1 (centres unmarked) [Compound #29, 3-(4-(1-(4-Methoxy-5-(2-methyl-4-(trifluoromethyl)phenyl)-1H-indazol-1-yl)-3-methylbutyl)benzamido)propanoic acid] |
| 5.87 | CC(C)CC(c1ccc(C(=O)NCCC(=O)O)cc1)n1ncc2cc(-c3cccc4ccccc34)ccc21 (centres unmarked) [compound 165] |
| 6.98 | CC(C)CC(c1ccc(C(=O)NCCC(=O)O)nc1)n1cc2cc(-c3ccc(C(F)(F)F)cc3Cl)ccc2n1 (centres unmarked) [Compound #53, 3-(5-(1-(5-(2-Chloro-4-(trifluoromethyl)phenyl)-2H-indazol-2-yl)-3-methylbutyl)picolinamido)pr-opanoic acid] |
| 7.38 | Cc1cc(Cl)ccc1-c1ccc2nn(C(CC3CCCCC3)c3ccc(C(=O)NCCC(=O)O)cc3)cc2c1 (centres unmarked) [compound 153] |
| 6.26 | O=C(O)CCNC(=O)c1ccc(C(CC2CCCCC2)n2ncc3cc(-c4ccc(C(F)(F)F)cc4)ccc32)cn1 (centres unmarked) [compound 255] |
| 6.89 | CCCCCC(c1ccc(C(=O)NCCC(=O)O)cc1)n1ncc2cc(-c3ccc(C(F)(F)F)cc3)ccc21 (centres unmarked) [compound 89] |
| 7.33 | Cc1cc(C(F)(F)F)ccc1-c1ccc2nn(C(CCC(F)(F)F)c3ccc(C(=O)NCCC(=O)O)cc3)cc2c1 (centres unmarked) [Compound #50, 3-[[4-[4,4,4-Trifluoro-1-[5-[2-methyl-4-(trifluoromethyl)phenyl]indazol-2-yl]butyl]benzoyl]amino]propanoic acid] |
| < 5.28 | CC(C)CCn1cc(-c2ccc3nn(C(CC(C)C)c4ccc(C(=O)NCCC(=O)O)cc4)cc3c2)cn1 (centres unmarked) [Compound #17] |
| 7.07 | CC(C)C[C@@H](c1ccc(C(=O)NCCC(=O)O)cc1)n1ncc2cc(-c3ccc(C(F)(F)F)cc3Cl)ccc21 [Compound #90, 3-[[4-[(1S)-1-[5-[2-Chloro-4-(trifluoromethyl)phenyl]indazol-1-yl]-3-methyl-butyl]benzoyl]amino]propanoic acid] |
| 6.35 | Cc1cc(Cl)ccc1-c1ccc2c(cnn2C(CC(C)C)c2ccc(C(=O)NCCC(=O)O)nc2)c1 (centres unmarked) [Compound #14, 3-(5-(1-(5-(4-Chloro-2-methylphenyl)-1H-indazol-1-yl)-3-methylbutyl)picolinamido)propanoic acid] |

| pKi | SMILES |
| --- | --- |
| 7.43 | Cc1cc(Cl)ccc1-c1ccc2nn(C(CCC3CCCCC3)c3ccc(C(=O)NCCC(=O)O)cc3)cc2c1 (centres unmarked) [compound 247] |
| 6.72 | Cc1cc2c(cnn2C(CC(C)C)c2ccc(C(=O)NCCC(=O)O)cc2)cc1-c1cc2cc(F)ccc2s1 (centres unmarked) [Compound #158, 3-[[4-[1-[5-(5-Fluorobenzothiophen-2-yl)-6-methyl-indazol-1-yl]-3-methyl-butyl]benzoyl]amino]propanoic acid] |
| 7.07 | CC(C)CC(c1ccc(C(=O)NCCC(=O)O)cc1)n1ncc2cc(-c3ccc(C(F)(F)F)cc3Cl)ccc21 (centres unmarked) [Compound #41, 3-(4-(1-(5-(2-Chloro-4-(trifluoromethyl)phenyl)-1H-indazol-1-yl)-3-methylbutyl)benzamido)propanoic acid] |
| 6.63 | O=C(O)CCNC(=O)c1ccc(C(CCC(F)(F)F)n2ncc3cc(-c4ccc(C(F)(F)F)cc4)ccc32)cc1 (centres unmarked) [Compound #75, 3-[[4-[4,4,4-Trifluoro-1-[5-[4-(trifluoromethyl)phenyl]indazol-1-yl]butyl]benzoyl]amino]propanoic acid] |
| 7.77 | CCOc1c(-c2ccc(C(F)(F)F)cc2C)ccc2nn(C(CC(C)C)c3ccc(C(=O)NCCC(=O)O)nc3)cc12 (centres unmarked) [Compound #207, 3-(5-(1-(4-Ethoxy-5-(2-methyl-4-(trifluoromethyl)phenyl)-2H-indazol-2-yl)-3-methylbutyl)picolinamido)propanoic acid] |
| 6.64 | Cc1ccc2cc(-c3ccc4c(cnn4C(CC(C)C)c4ccc(C(=O)NCCC(=O)O)cc4)c3)sc2c1 (centres unmarked) [compound 62] |
| 6.90 | Cc1cc(Cl)ccc1-c1cc2cn(C(CC(C)C)c3ccc(C(=O)NCCC(=O)O)nc3)nc2cc1Cl (centres unmarked) [Compound #140, 3-[[5-[1-[6-Chloro-5-(4-chloro-2-methyl-phenyl)indazol-2-yl]-3-methyl-butyl]pyridine-2-carbonyl]amino]propanoic acid] |
| 6.26 | Cc1cc(Cl)ccc1-c1cc2cnn(C(CC(C)C)c3ccc(C(=O)NCCC(=O)O)nc3)c2cc1Cl (centres unmarked) [Compound #102, 3-[[5-[1-[6-Chloro-5-(4-chloro-2-methyl-phenyl)indazol-1-yl]-3-methyl-butyl]pyridine-2-carbonyl]amino]propanoic acid] |
| 7.20 | O=C(O)CCNC(=O)c1ccc(C(CC2CCCCC2)n2cc3cc(-c4ccc(C(F)(F)F)cc4)ccc3n2)cc1 (centres unmarked) [compound 92] |
| 6.57 | Cc1cc(Cl)ccc1-c1ccc2nn(C(CC(C)C)c3ccc(C(=O)NCCC(=O)O)nc3)cc2c1 (centres unmarked) [Compound #252, 3-(5-(1-(5-(4-Chloro-2-methylphenyl)-2H-indazol-2-yl)-3-methylbutyl)picolinamido)propanoic acid] |
| 7.89 | Cc1c(-c2ccc(C(F)(F)F)cc2Cl)ccc2nn(C(CC(C)C)c3ccc(C(=O)NCCC(=O)O)nc3)cc12 (centres unmarked) [Compound #154, 3-(5-(1-(5-(2-Chloro-4-(trifluoromethyl)phenyl)-4-methyl-2H-indazol-2-yl)-3-methylbutyl)picolinamido)propanoic acid] |
| 6.80 | CC(C)(C)CC(c1ccc(C(=O)NCCC(=O)O)nc1)n1ncc2cc(-c3ccc(C(F)(F)F)cc3)ccc21 (centres unmarked) [compound 237] |
| 6.68 | Cc1cc(Cl)ccc1-c1ccc2c(cnn2C(CC(C)C)c2ccc(C(=O)NCCC(=O)O)cc2)c1 (centres unmarked) [Compound #39, 3-(4-(1-(5-(4-Chloro-2-methylphenyl)-1H-indazol-1-yl)-3-methylbutyl)benzamido)propanoic acid] |
| 7.62 | Cc1ccc(-c2ccc3nn(C(CC(C)C)c4ccc(C(=O)NCCC(=O)O)cc4)cc3c2C)c(C)c1 (centres unmarked) [Compound #143, 3-(4-(1-(5-(2,4-Dimethylphenyl)-4-methyl-2H-indazol-2-yl)-3-methylbutyl)benzamido)propanoic acid] |
| 5.55 | CC(c1ccc(C(=O)NCCC(=O)O)cc1)n1ncc2cc(-c3ccc(C(C)(C)C)cc3)ccc21 (centres unmarked) [Compound #68, 3-(4-(1-(5-(4-(tert-Butyl)phenyl)-1H-indazol-1-yl)ethyl)benzamido) propanoic acid] |
| 7.38 | Cc1c(-c2ccc(C(F)(F)F)cc2Cl)ccc2c1cnn2[C@@H](CC(C)C)c1ccc(C(=O)NCCC(=O)O)cc1 [Compound #241, (S)-3-(4-(1-(5-(2-Chloro-4-(trifluoromethyl)phenyl)-4-methyl-1H-indazol-1-yl)-3-methylbutyl)benzamido)propanoic acid] |
| 7.66 | COc1c(-c2ccc(C(F)(F)F)cc2Cl)ccc2nn(C(CC(C)C)c3ccc(C(=O)NCCC(=O)O)nc3)cc12 (centres unmarked) [Compound #178, 3-(5-(1-(5-(2-Chloro-4-(trifluoromethyl)phenyl)-4-methoxy-2H-indazol-2-yl)-3-methylbutyl)picolinamido)propanoic acid] |
